The source of these data is patent US20070004660A1, “Synergistic Modulation of Flt3 Kinase Using Alkylquinolines and Alkylquinazolines” (priority 2005, published 2007).

The IC50 is the concentration needed to halve the response being measured.

This assay addresses T1, wild-type FLT3 receptor (Homo sapiens, UniProt P36888).
T1 construct: host or cells: Baf3 (murine B cell lymphoma line), stably transfected
T1 sequence (P36888 27-993): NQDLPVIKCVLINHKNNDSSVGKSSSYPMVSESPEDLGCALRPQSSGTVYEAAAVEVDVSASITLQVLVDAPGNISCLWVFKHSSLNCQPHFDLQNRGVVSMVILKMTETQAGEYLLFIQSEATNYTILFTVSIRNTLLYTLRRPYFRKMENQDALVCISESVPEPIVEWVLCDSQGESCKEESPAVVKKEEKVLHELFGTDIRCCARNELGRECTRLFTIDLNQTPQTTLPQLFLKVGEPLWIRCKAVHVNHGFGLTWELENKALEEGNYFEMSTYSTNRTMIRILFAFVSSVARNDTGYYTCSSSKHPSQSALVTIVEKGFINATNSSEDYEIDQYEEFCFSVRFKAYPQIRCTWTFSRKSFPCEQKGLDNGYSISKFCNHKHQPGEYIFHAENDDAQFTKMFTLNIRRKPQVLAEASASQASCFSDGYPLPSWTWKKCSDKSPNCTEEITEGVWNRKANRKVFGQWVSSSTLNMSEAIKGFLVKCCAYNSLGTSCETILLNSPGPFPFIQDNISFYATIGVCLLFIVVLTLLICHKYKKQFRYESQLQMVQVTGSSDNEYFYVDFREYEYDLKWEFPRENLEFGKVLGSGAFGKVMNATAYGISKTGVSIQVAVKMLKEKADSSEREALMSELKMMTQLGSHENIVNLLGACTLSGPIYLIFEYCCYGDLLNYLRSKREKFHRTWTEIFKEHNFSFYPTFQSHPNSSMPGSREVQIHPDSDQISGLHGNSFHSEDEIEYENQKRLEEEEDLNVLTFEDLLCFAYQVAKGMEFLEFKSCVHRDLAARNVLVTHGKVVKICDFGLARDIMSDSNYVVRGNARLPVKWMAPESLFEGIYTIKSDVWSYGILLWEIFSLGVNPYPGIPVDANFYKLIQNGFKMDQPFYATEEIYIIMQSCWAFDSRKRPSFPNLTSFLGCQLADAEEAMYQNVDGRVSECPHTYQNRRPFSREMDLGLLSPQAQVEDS
The experiment in a line: Cell-based FLT3 receptor ELISA (FLT ligand-induced phosphorylation in Baf3 FLT3 cells). The following applies: 100 ng/mL Flt ligand, uncertainty ±20%. An outline of the steps: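 Receptor phosphotyrosine measured by sandwich ELISA (anti-FLT3 capture, HRP anti-pTyr, luminescence) in FLT3-transfected murine Baf3 cells given 1 h compound pretreatment and 10 min 100 ng/mL FLT ligand after overnight low-serum starvation; triplicates, IC50 from nonlinear regression.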
On the technique in general: ELISA stands for enzyme-linked immunosorbent assay.
With `CN1CCN(c2ccc3c(C4CCN(C(=O)Nc5ccc(N6CCCC6)cc5)CC4)ncnc3c2)CC1` [Example 159, 4-[7-(4-Methyl-piperazin-1-yl)-quinazolin-4-yl]-piperidine-1-carboxylic acid (4-pyrrolidin-1-yl-phenyl)-amide], the IC50 came to 6 nM.

For the compound `O=C(Nc1ccc(N2CCCC2)cc1)N1CCC(c2ncnc3cc(-n4ccnc4)ccc23)CC1` [Compound 180, 4-(7-Imidazol-1-yl-quinazolin-4-yl)-piperidine-1-carboxylic acid (4-pyrrolidin-1-yl-phenyl)-amide], the IC50 worked out at 10 nM.

`O=C(Nc1ccc(N2CCOCC2)cc1)N1CCC(c2ncnc3cc(N4CCNCC4)ccc23)CC1` [Example 140, 4-(7-Piperazin-1-yl-quinazolin-4-yl)-piperidine-1-carboxylic acid (4-morpholin-4-yl-phenyl)-amide]: the IC50 came out at 31 nM.
